Measurements as given in PubChem BioAssay AID330 (DTP/NCI, 2004).
“And” between values parts separate entries of the source, which are not always exact repeats. Equal values may be shown once. Inconclusive results and toxic doses are left out.

System: P388 leukemia ip, CD2F1 mice, survival T/C
Experiment: NCI In Vivo Anticancer Drug Screen. Data for tumor model P388 Leukemia (intraperitoneal) in CD2F1 (CDF1) mice
Settings: endpoint: median survival time, higher = longer survival
Summary of the method: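 Mice carrying the transplanted tumor received test compound or vehicle. Survival was recorded in each group, and the value is the treated-group measurement divided by that of the vehicle-treated control group.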

[1] = dose: 50.0 mg/kg/injection, schedule: Q01DX009 (ip), vehicle: saline
[2] = dose: 100.0 mg/kg/injection, schedule: Q01DX009 (ip), vehicle: saline with Tween-80
[3] = dose: 200.0 mg/kg/injection, schedule: Q01DX009 (ip), vehicle: saline with Tween-80
[4] = dose: 400.0 mg/kg/injection, schedule: Q01DX009 (ip), vehicle: saline with Tween-80
[5] = dose: 100.0 mg/kg/injection, schedule: Q04DX003 (ip), vehicle: saline with Tween-80
[6] = dose: 200.0 mg/kg/injection, schedule: Q04DX003 (ip), vehicle: saline with Tween-80
[7] = dose: 400.0 mg/kg/injection, schedule: Q04DX003 (ip), vehicle: saline with Tween-80
[8] = dose: 50.0 mg/kg/injection, schedule: Q01DX005 (ip), vehicle: saline with Tween-80
[9] = dose: 100.0 mg/kg/injection, schedule: Q01DX005 (ip), vehicle: saline with Tween-80
[10] = dose: 200.0 mg/kg/injection, schedule: Q01DX005 (ip), vehicle: saline with Tween-80
[11] = dose: 100.0 mg/kg/injection, schedule: Q01DX001 (ip), vehicle: saline with Tween-80
[12] = dose: 200.0 mg/kg/injection, schedule: Q01DX001 (ip), vehicle: saline with Tween-80
[13] = dose: 400.0 mg/kg/injection, schedule: Q01DX001 (ip), vehicle: saline with Tween-80
[14] = dose: 100.0 mg/kg/injection, schedule: Q01DX001 (ip), vehicle: Klucel (hydroxypropylcellulose) (HPC)
[15] = dose: 200.0 mg/kg/injection, schedule: Q01DX001 (ip), vehicle: Klucel (hydroxypropylcellulose) (HPC)
[16] = dose: 50.0 mg/kg/injection, schedule: Q01DX009 (ip), vehicle: saline with Tween-80

## COC(=O)C12CC=CC1C(C)CC2 (stereo unspecified)
dose: 75.0 mg/kg/injection, schedule: Q04DX002 (ip), vehicle: Klucel (hydroxypropylcellulose) (HPC)
  T/C: 100 % of control
dose: 150.0 mg/kg/injection, schedule: Q04DX002 (ip), vehicle: Klucel (hydroxypropylcellulose) (HPC)
  T/C: 100 % of control
dose: 300.0 mg/kg/injection, schedule: Q04DX002 (ip), vehicle: Klucel (hydroxypropylcellulose) (HPC)
  T/C: 100 % of control

## Cc1cnc(Sc2c([N+](=O)[O-])ncn2C)nc1
[1]
  T/C: 109 % of control
dose: 100.0 mg/kg/injection, schedule: Q01DX009 (ip), vehicle: saline
  T/C: 104 % of control
dose: 200.0 mg/kg/injection, schedule: Q01DX009 (ip), vehicle: saline
  T/C: 109 % of control

## O=C1CNC(=O)N1CN1CCc2ccccc2C1
dose: 50.0 mg/kg/injection, schedule: Q01DX005 (ip), vehicle: Klucel (hydroxypropylcellulose) (HPC)
  T/C: 99 % of control
dose: 100.0 mg/kg/injection, schedule: Q01DX005 (ip), vehicle: Klucel (hydroxypropylcellulose) (HPC)
  T/C: 105 % of control
dose: 200.0 mg/kg/injection, schedule: Q01DX005 (ip), vehicle: Klucel (hydroxypropylcellulose) (HPC)
  T/C: 99 % of control

## COC(=O)CC1SC(=S)N(Cc2ccc(Cl)cc2)C1=O (stereo unspecified)
dose: 60.0 mg/kg/injection, schedule: Q01DX005 (ip), vehicle: Klucel (hydroxypropylcellulose) (HPC)
  T/C: 94 % of control
dose: 120.0 mg/kg/injection, schedule: Q01DX005 (ip), vehicle: Klucel (hydroxypropylcellulose) (HPC)
  T/C: 90 % of control
dose: 240.0 mg/kg/injection, schedule: Q01DX005 (ip), vehicle: Klucel (hydroxypropylcellulose) (HPC)
  T/C: 90 % of control

## O=[N+]([O-])c1cccc(/C=C/C=C/c2ccc(Cl)c(S(=O)(=O)F)c2)c1
[2]
  T/C: 86 % of control
[3]
  T/C: 86 % of control
[4]
  T/C: 86 % of control

## CCOc1ccc(OCC)c(NC(=O)c2ccccc2)c1
[5]
  T/C: 100 % of control
[6]
  T/C: 95 % of control
[7]
  T/C: 95 % of control

## CCOC(=O)C(N=Nc1ccc(Br)cc1C)C(C)=O (stereo unspecified)
dose: 25.0 mg/kg/injection, schedule: Q01DX005 (ip), vehicle: saline with Tween-80
  T/C: 98 % of control
[8]
  T/C: 99 % of control
[9]
  T/C: 98 % of control
[10]
  T/C: 89 % of control

## COC(=O)c1ccc(O)c(O)c1
[2]
  T/C: 104 % of control
[3]
  T/C: 100 % of control
[4]
  T/C: 100 % of control

## COC1=C(N2CC2)C(=O)C(OC)=C(N2CC2)C1=O
dose: 4.0 mg/kg/injection, schedule: Q04DX003 (ip), vehicle: saline with Tween-80
  T/C: 159 % of control

## CCCCN1C(=O)C2C3C=CC(C2C1=O)C1C2C(=O)N(CCCC)C(=O)C2C31 (stereo unspecified)
[11]
  T/C: 93 % of control
[12]
  T/C: 93 % of control
[13]
  T/C: 90 % of control

## COc1cc2c(cc1OC)C(CSC)Cc1cc(OC)c(OC)cc1N(C)CCC2 (stereo unspecified)
[5]
  T/C: 102 % of control
[6]
  T/C: 93 % of control
[7]
  T/C: 93 % of control

## Cc1ccc(N2C(=O)CCSC2=S)cc1C
dose: 50.0 mg/kg/injection, schedule: Q01DX009 (ip), vehicle: suspension in saline
  T/C: 108 % of control
dose: 100.0 mg/kg/injection, schedule: Q01DX009 (ip), vehicle: suspension in saline
  T/C: 89 % of control
dose: 200.0 mg/kg/injection, schedule: Q01DX009 (ip), vehicle: suspension in saline
  T/C: 99 % of control

## O=C(O)c1ccc(NC(C[N+](=O)[O-])C(F)(F)C(F)(F)C(F)(F)F)cc1 (stereo unspecified)
dose: 100.0 mg/kg/injection, schedule: Q01DX001 (ip), vehicle: saline sonified
  T/C: 100 % of control
dose: 200.0 mg/kg/injection, schedule: Q01DX001 (ip), vehicle: saline sonified
  T/C: 100 % of control
dose: 400.0 mg/kg/injection, schedule: Q01DX001 (ip), vehicle: saline sonified
  T/C: 100 % of control

## COc1ccc(Oc2cc3c(cc2OC)CCN(C)C3)cc1
dose: 12.5 mg/kg/injection, schedule: Q01DX009 (ip), vehicle: saline
  T/C: 108 % of control
dose: 25.0 mg/kg/injection, schedule: Q01DX009 (ip), vehicle: saline
  T/C: 104 % of control
[1]
  T/C: 99 % of control and 107 % of control

## Nc1nnn(CCCl)n1
[14]
  T/C: 88 % of control
[15]
  T/C: 88 % of control

## CC1=NC(C#N)=C(C#N)N=C(C)C1
dose: 12.5 mg/kg/injection, schedule: Q01DX009 (ip), vehicle: Klucel (hydroxypropylcellulose) (HPC)
  T/C: 93 % of control
dose: 25.0 mg/kg/injection, schedule: Q01DX009 (ip), vehicle: Klucel (hydroxypropylcellulose) (HPC)
  T/C: 94 % of control
dose: 50.0 mg/kg/injection, schedule: Q01DX009 (ip), vehicle: Klucel (hydroxypropylcellulose) (HPC)
  T/C: 93 % of control

## CC1(C)OC2OCCC(N=[N+]=[N-])C2O1 (stereo unspecified)
[8]
  T/C: 96 % of control
[9]
  T/C: 96 % of control
[10]
  T/C: 94 % of control

## Cc1c(NC(=O)Nc2ccc(F)cc2[N+](=O)[O-])c(=O)n(-c2ccccc2)n1C
[16]
  T/C: 109 % of control
[2]
  T/C: 112 % of control
[3]
  T/C: 97 % of control

## Cc1ccc(NC(=O)c2ccc([N+](=O)[O-])cc2)c(C)c1
[2]
  T/C: 100 % of control
[3]
  T/C: 100 % of control
[4]
  T/C: 110 % of control

## O=C1C(c2cnc3c(n2)CCC=C3)=C(O)c2ccccc21
dose: 60.0 mg/kg/injection, schedule: Q01DX005 (ip), vehicle: saline with Tween-80
  T/C: 99 % of control
dose: 120.0 mg/kg/injection, schedule: Q01DX005 (ip), vehicle: saline with Tween-80
  T/C: 100 % of control
dose: 240.0 mg/kg/injection, schedule: Q01DX005 (ip), vehicle: saline with Tween-80
  T/C: 100 % of control

## CCN(CC)CC.COC(=O)NC#N.[CH-]1CCCCC1.[CH-]1CCCCC1.[CH-]1CCCCC1.[Cl-].[Sn+4]
dose: 3.12 mg/kg/injection, schedule: Q01DX005 (ip), vehicle: saline with Tween-80
  T/C: 104 % of control
dose: 6.25 mg/kg/injection, schedule: Q01DX005 (ip), vehicle: saline with Tween-80
  T/C: 98 % of control

## CC1(C)C2CCC(C2)C1C(=O)CCN1CCc2ccccc2C1 (stereo unspecified)
dose: 12.5 mg/kg/injection, schedule: Q01DX009 (ip), vehicle: saline with Tween-80
  T/C: 106 % of control
dose: 25.0 mg/kg/injection, schedule: Q01DX009 (ip), vehicle: saline with Tween-80
  T/C: 107 % of control
[16]
  T/C: 107 % of control

## CSC(/C=C/c1ccccc1)=Nc1ccccc1
[11]
  T/C: 99 % of control
[12]
  T/C: 99 % of control
[13]
  T/C: 101 % of control

## O=S(=O)(n1ccnc1)C(F)(F)F
dose: 12.5 mg/kg/injection, schedule: Q01DX001 (ip), vehicle: saline
  T/C: 101 % of control
dose: 25.0 mg/kg/injection, schedule: Q01DX001 (ip), vehicle: saline
  T/C: 96 % of control
dose: 50.0 mg/kg/injection, schedule: Q01DX001 (ip), vehicle: saline
  T/C: 96 % of control

## CCOC(=S)NC(=O)c1ccccc1
[16]
  T/C: 99 % of control
[2]
  T/C: 108 % of control
[3]
  T/C: 100 % of control

## O=C(NC1CCOC1=O)c1ccc(N=C=S)cc1 (stereo unspecified)
dose: 25.0 mg/kg/injection, schedule: Q04DX003 (ip), vehicle: Klucel (hydroxypropylcellulose) (HPC)
  T/C: 104 % of control
dose: 50.0 mg/kg/injection, schedule: Q04DX003 (ip), vehicle: Klucel (hydroxypropylcellulose) (HPC)
  T/C: 107 % of control
dose: 100.0 mg/kg/injection, schedule: Q04DX003 (ip), vehicle: Klucel (hydroxypropylcellulose) (HPC)
  T/C: 101 % of control and 106 % of control

## C1CN2CCN3CCCN4CCN(C1)C2C34 (stereo unspecified)
dose: 50.0 mg/kg/injection, schedule: Q01DX005 (ip), vehicle: saline
  T/C: 93 % of control
dose: 100.0 mg/kg/injection, schedule: Q01DX005 (ip), vehicle: saline
  T/C: 108 % of control
dose: 200.0 mg/kg/injection, schedule: Q01DX005 (ip), vehicle: saline
  T/C: 111 % of control

## c1ccc(C2C(c3ccccn3)C(c3ccccn3)C2c2ccccn2)nc1 (stereo unspecified)
[14]
  T/C: 95 % of control
[15]
  T/C: 94 % of control
dose: 400.0 mg/kg/injection, schedule: Q01DX001 (ip), vehicle: Klucel (hydroxypropylcellulose) (HPC)
  T/C: 95 % of control

## COCC(=O)C1(O)Cc2c(O)c3c(c(O)c2C(O)C1)C(=O)c1c(OC)cccc1C3=O (stereo unspecified)
dose: 1.56 mg/kg/injection, schedule: Q01DX009 (ip), vehicle: other
  T/C: 92 % of control
dose: 3.13 mg/kg/injection, schedule: Q01DX009 (ip), vehicle: other
  T/C: 101 % of control
dose: 6.25 mg/kg/injection, schedule: Q01DX009 (ip), vehicle: other
  T/C: 101 % of control
dose: 12.5 mg/kg/injection, schedule: Q01DX009 (ip), vehicle: other
  T/C: 94 % of control
dose: 25.0 mg/kg/injection, schedule: Q01DX009 (ip), vehicle: other
  T/C: 92 % of control
